What all share (experiment): ≥ marks a high value that may be exact or a test limit, other limits are often not marked, values filed in µg/mL are converted to µM
For test [1], the system named is Candida albicans ATCC 90028.
Test [2] concerns Escherichia coli ATCC 25922.
For test [3], the system named is Staphylococcus aureus NCTC 8325.
In another test the test system is Candida albicans.
Test [4] deals with Enterococcus faecalis ATCC 29212.
Another test has as its system Escherichia coli UB1005.
Test [5] deals with Pseudomonas aeruginosa H103.
For test [6], the system named is Salmonella enterica serovar Typhimurium.
Test [7] concerns Staphylococcus aureus ATCC 25923.
For test [8], the system named is Staphylococcus epidermidis.
The test system of test [9] is Candida albicans NCYC 1467.
Test [10] deals with Enterococcus faecalis NCTC 12697.
Test [11] relates to Escherichia coli NCTC 10418.
In test [12] the test system is Klebsiella pneumoniae ATCC 43816.
The subject of test [13] is Pseudomonas aeruginosa ATCC 27853.
The test system of test [14] is Staphylococcus aureus NCTC 10788.
The test system of test [15] is Staphylococcus aureus NCTC 12493.
The subject of test [16] is Salmonella enterica subsp. enterica serovar Enteritidis.
Test [17] deals with Staphylococcus aureus ATCC 29213.

The values below come from DBAASP.

Values after ≈ are worked out from the molar mass of the structure shown. A value given as a limit tells only on which side of the number the result lay.

The term MIC denotes the lowest concentration that inhibits growth of the organism. On to `CC[C@H](C)[C@@H]1NC(=O)[C@H](C)NC(=O)[C@@H](NC(=O)[C@H](Cc2ccccc2)NC(=O)[C@@H](NC(=O)[C@H](CCCCN)NC(=O)[C@H](CO)NC(=O)[C@H](Cc2ccccc2)NC(=O)[C@@H](NC(=O)[C@H](CC(N)=O)NC(=O)[C@H](C)NC(=O)[C@H](C)NC(=O)[C@@H](NC(=O)[C@H](CO)NC(=O)[C@H](C)NC(=O)[C@@H](NC(=O)[C@@H](NC(=O)[C@@H]2CCCN2C(=O)[C@H](CC(C)C)NC(=O)[C@@H](N)Cc2ccccc2)[C@@H](C)CC)[C@@H](C)CC)C(C)C)C(C)C)[C@@H](C)CC)CSSC[C@@H](C(=O)O)NC(=O)[C@H](CCCCN)NC(=O)[C@H](CCCCN)NC(=O)[C@H](CO)NC1=O` [FLPIIASVAANVFSKIFCAISKKC], for which the results for the MIC in test [1], in [2] and in test [3] were 29 µM (≈ 74.5 µg/mL), 78 µM (≈ 200 µg/mL) and 27 µM (≈ 69.4 µg/mL), respectively.
As for `CC[C@H](C)[C@H](NC(=O)[C@@H](NC(=O)[C@@H](NC(=O)[C@H](CCCN=C(N)N)NC(=O)[C@H](CCCN=C(N)N)NC(=O)[C@H](C)NC(=O)[C@H](CC(C)C)NC(=O)[C@@H](N)CCCN=C(N)N)C(C)C)C(C)C)C(=O)N[C@@H](CCCN=C(N)N)C(=O)N[C@H](C(=O)N[C@@H](C)C(=O)N[C@@H](CCCN=C(N)N)C(N)=O)C(C)C` [RLARRVVIRVAR], the MIC with Candida albicans is 85.3 µM (≈ 125 µg/mL); in test [4], 85.3 µM (≈ 125 µg/mL); against Escherichia coli UB1005, 10.9 µM (≈ 16 µg/mL); in [5] it was at least 43 µM; in test [6] it was 21.2 µM (≈ 31 µg/mL); in test [7] it was 43 µM (≈ 63 µg/mL). This compound also yielded an MIC in test [8] of 10.9 µM (≈ 16 µg/mL).
For `CC[C@H](C)[C@H](NC(=O)[C@H](C)NC(=O)[C@H](CO)NC(=O)[C@@H](NC(=O)[C@H](C)NC(=O)[C@H](CCCCN)NC(=O)[C@@H]1CCCN1C(=O)[C@@H](NC(=O)[C@H](CC(C)C)NC(=O)[C@H](CO)NC(=O)[C@H](CC(C)C)NC(=O)[C@@H](N)Cc1ccccc1)[C@@H](C)CC)[C@@H](C)CC)C(=O)N[C@@H](CO)C(=O)N[C@@H](C)C(=O)N[C@@H](CC(C)C)C(=O)N[C@H](C(=O)N[C@@H](CC(N)=O)C(=O)N[C@@H](Cc1cnc[nH]1)C(=O)N[C@@H](Cc1ccccc1)C(N)=O)[C@@H](C)CC` [FLSLIPKAISAISALINHF], the MIC in test [9] is 4 µM (≈ 8.22 µg/mL); in test [10], at least 32 µM; in [11], at least 512 µM; in [12], at least 512 µM; in [13] it was above 512 µM; in [14] it was 2 µM (≈ 4.11 µg/mL). In addition, in [15], the MIC is at least 32 µM.
With `CC[C@H](C)[C@@H]1NC(=O)[C@H](C)NC(=O)[C@@H](NC(=O)[C@H](Cc2ccccc2)NC(=O)[C@@H](NC(=O)[C@H](CCCCN)NC(=O)[C@@H]2CCCN2C(=O)[C@H](CC(C)C)NC(=O)[C@@H](N)Cc2ccccc2)[C@@H](C)CC)CSSC[C@@H](C(=O)O)NC(=O)[C@H](CCCCN)NC(=O)[C@H](CCCCN)NC(=O)[C@H]([C@@H](C)O)NC1=O` [FLPKIFCAITKKC], the MIC in test [9] is at least 512 µM; in test [10], at least 512 µM; in test [11] it was at least 256 µM; in test [12], at least 512 µM; in test [13], above 512 µM; in test [14] it was at least 256 µM. This compound also registered an MIC in [15] of at least 256 µM.
`CC[C@H](C)[C@H](NC(=O)[C@H](C)NC(=O)[C@H](C)NC(=O)[C@@H]1CCCN1C(=O)[C@@H](NC(=O)[C@H](CC(C)C)NC(=O)[C@H](CCCCN)NC(=O)CNC(=O)[C@H](C)NC(=O)[C@H](CS)NC(=O)[C@H](CCCCN)NC(=O)[C@H](CCCCN)NC(=O)[C@H](CO)NC(=O)[C@@H](NC(=O)[C@H](CCCCN)NC(=O)[C@H](CS)NC(=O)[C@@H](NC(=O)[C@H](CCCCN)NC(=O)[C@H](CC(C)C)NC(=O)[C@@H](NC(=O)[C@H](C)NC(=O)CNC(=O)[C@H](CC(C)C)NC(=O)[C@@H](N)Cc1ccccc1)C(C)C)C(C)C)[C@@H](C)CC)C(C)C)C(=O)O` [FLGAVLKVCKISKKCAGKLVPAAI]: the minimum inhibitory concentration (MIC) in [9] was at least 128 µM; in test [10] it was at least 128 µM; in [11], 16 µM (≈ 39.3 µg/mL); in [12], at least 256 µM; in test [13] it was 128 µM (≈ 315 µg/mL); in test [14], at least 32 µM. In test [15], this compound displayed an MIC of at least 128 µM.
Regarding `CC[C@H](C)[C@H](N)C(=O)N1CCC[C@H]1C(=O)N[C@@H](Cc1cnc[nH]1)C(=O)N[C@@H](C)C(=O)N[C@H](C(=O)N[C@@H](CCCCN)C(=O)N[C@@H](C)C(=O)N[C@H](C(=O)N[C@@H](CO)C(=O)N[C@@H](CC(=O)O)C(=O)N[C@@H](CC(C)C)C(=O)N[C@H](C(N)=O)[C@@H](C)CC)[C@@H](C)CC)C(C)C` [IPHAVKAISDLI], the MIC was at least 200 µM in test [1], above 200 µM in [2] and at least 200 µM in test [3].
Turning to `CC[C@H](C)[C@H](NC(=O)[C@H](CCCCN)NC(=O)[C@H](CO)NC(=O)[C@H](Cc1c[nH]c2ccccc12)NC(=O)[C@H](CC(C)C)NC(=O)CN)C(=O)N[C@@H](CCCCN)C(=O)N[C@@H](CC(=O)O)C(=O)N[C@@H](C)C(=O)N[C@@H](C)C(=O)N[C@@H](CCCCN)C(=O)N[C@H](C(=O)N[C@@H](C)C(=O)NCC(=O)N[C@@H](CCCCN)C(=O)N[C@@H](C)C(=O)N[C@@H](C)C(=O)N[C@@H](CC(C)C)C(=O)NCC(=O)N[C@@H](Cc1ccccc1)C(=O)N[C@H](C(=O)N[C@@H](CC(N)=O)C(=O)N[C@@H](CCC(=O)O)C(=O)N[C@@H](CCSC)C(=O)N[C@H](C(N)=O)C(C)C)C(C)C)[C@@H](C)O` [GLWSKIKDAAKTAGKAALGFVNEMV], the MIC in test [9] was at least 64 µM; in test [10] it was 16 µM (≈ 41.7 µg/mL); in test [11], 8 µM (≈ 20.8 µg/mL); in test [12], 8 µM (≈ 20.8 µg/mL); in test [13], 16 µM (≈ 41.7 µg/mL); in [14], 16 µM (≈ 41.7 µg/mL). Besides, the MIC in [15] is at least 32 µM.
With `CC[C@H](C)[C@H](NC(=O)CNC(=O)[C@H](CO)NC(=O)[C@@H](NC(=O)[C@@H](NC(=O)[C@H](CCCCN)NC(=O)[C@H](C)NC(=O)[C@H](CC(C)C)NC(=O)[C@H](C)NC(=O)CNC(=O)[C@H](CC(C)C)NC(=O)[C@@H](N)Cc1ccccc1)[C@@H](C)CC)[C@@H](C)CC)C(=O)N[C@@H](Cc1ccccc1)C(N)=O` [FLGALAKIISGIF], the MIC is above 100 µM in test [2] and 4 µM (≈ 5.39 µg/mL) in test [3].
For `CC[C@H](C)[C@H](NC(=O)[C@H](CCCCN)NC(=O)[C@H](Cc1c[nH]c2ccccc12)NC(=O)[C@H](CCCNC(=N)N)NC(=O)[C@@H](N)CCCNC(=N)N)C(=O)N[C@H](C(=O)N[C@H](C(=O)N[C@H](C(=O)N[C@@H](CCCNC(=N)N)C(=O)N[C@@H](Cc1c[nH]c2ccccc12)C(=O)N[C@@H](CCCNC(=N)N)C(=O)N[C@@H](CCCNC(=N)N)C(=O)O)[C@@H](C)CC)C(C)C)C(C)C` [RRWKIVVIRWRR], the MIC with Candida albicans stood at 11.1 µM (≈ 19.1 µg/mL); in [4], 1.4 µM (≈ 2.41 µg/mL); against Escherichia coli UB1005, 1.4 µM (≈ 2.41 µg/mL); in test [5], 5.6 µM (≈ 9.66 µg/mL); in [6], 2.8 µM (≈ 4.83 µg/mL); in [7] it was 0.7 µM (≈ 1.21 µg/mL). The MIC in test [8] came to 0.3 µM (≈ 0.517 µg/mL).
Consider `CC[C@H](C)[C@H](NC(=O)[C@H](CCCN=C(N)N)NC(=O)[C@H](CC(C)C)NC(=O)[C@H](CCC(N)=O)NC(=O)[C@@H](N)C(C)C)C(=O)N[C@@H](CCCN=C(N)N)C(=O)N[C@H](C(=O)N[C@@H](CCCN=C(N)N)C(=O)N[C@H](C(=O)N[C@H](C(=O)N[C@@H](CCCN=C(N)N)C(=O)N[C@@H](CCCCN)C(N)=O)[C@@H](C)CC)C(C)C)C(C)C` [VQLRIRVRVIRK], for which the MIC against Candida albicans stood at 3.91 µM (≈ 6 µg/mL); in the test with Escherichia coli UB1005 it was 1.95 µM (≈ 3 µg/mL); in test [5], 3.91 µM (≈ 6 µg/mL); in test [6], 3.91 µM (≈ 6 µg/mL); in [7] it was 7.81 µM (≈ 12 µg/mL); in [8], 1.04 µM (≈ 1.6 µg/mL).
As for `CC[C@H](C)[C@H](NC(=O)[C@H](CO)NC(=O)[C@@H]1CCCN1C(=O)[C@H](CC(C)C)NC(=O)[C@@H](NC(=O)[C@H](CCCCN)NC(=O)[C@H](C)NC(=O)[C@H](C)NC(=O)[C@H](CC(C)C)NC(=O)CNC(=O)[C@H](C)NC(=O)[C@@H](NC(=O)[C@@H](NC(=O)[C@@H]1CCCN1C(=O)[C@H](CC(C)C)NC(=O)[C@@H](N)Cc1ccccc1)C(C)C)C(C)C)C(C)C)C(=O)N[C@H](C(=O)N[C@H]1CSSC[C@@H](C(=O)O)NC(=O)[C@H](CCCCN)NC(=O)[C@H](CCCCN)NC(=O)[C@H]([C@@H](C)O)NC(=O)[C@H](C(C)C)NC(=O)[C@H](C)NC1=O)[C@@H](C)CC` [FLPVVAGLAAKVLPSIICAVTKKC], the MIC in test [16] is at least 52.4 µM; in [17], 2.32 µM (≈ 5.65 µg/mL); in test [3], 7 µM (≈ 17.1 µg/mL).
